No end group written: not given here.
What was measured:
[1] = Brazzein sweetness activity by ascending taste test with a trained human panel; format: in vivo, humans; conditions: threshold concentration at which sweetness is first felt, 500 μl samples tasted from low to high concentration
Procedure: Since brazzein is a protein rather than a sugar, it is not possible to measure sweetness using a saccharimeter. Therefore, the activity was measured using a taste test that measures the activity of brazzein by allowing humans to directly taste brazzein. First, brazzein was dissolved in distilled water such that the final concentration was 1.0 mg/mL, samples were prepared by varying the test concentration so as to be 30 to 0.05 ng/mL, a threshold value for feeling the sweetness for the first time was obtained by tasting the sweetness of the solution, […] The specific activity measurement method was performed as follows.
A panel of a total of 20 males and 10 females trained in the sweetness test was configured. Prior to the activity measurement, the subjects were informed of the test date and time in advance to sample the taste in their best conditions, and were prohibited from drinking alcohol on the day before the test and eating food, smoking, and the like immediately before the test. The subjects trained in advance rinsed their mouths with prepared secondary distilled water and obtained the concentration at which the sweetness was first felt while sampling the taste of 500 μl of each sample according to the concentration of each type in the order of low concentration to high concentration. […]

[2] = versus 2% sugar solution, cited from earlier work

Substance: S. cerevisiae wild-type brazzein: wild-type brazzein (SEQ ID NO: 3) secreted and expressed in Saccharomyces cerevisiae with the pESC-Brazzein vector (DKCKKVYENYPVSKCQLANQCNYDCKLDKHARSGECFYDEKRNLQCICDYCEY)
- sweetness activity relative to the same mass of sucrose [1]: about 2,260 (±5.9%) fold

Substance: Brazzein: natural sweet protein of 54 amino acid residues, 6.5 kDa, from the fruit of Pentadiplandra brazzeana Baillon (QDKCKKVYENYPVSKCQLANQCNYDCKLDKHARSGECFYDEKRNLQCICDYCEY; UniProt P56552 1-54, looked up)
- sweetness relative to a 2% sugar solution, on a molar basis ([2]; molar basis): ~9500 fold
- sweetness relative to a 2% sugar solution, on a molecular weight basis ([2]; molecular weight basis): about 2000 fold

Substance: K. lactis wild-type brazzein: wild-type brazzein expressed in K. lactis, used as the sweetness comparison (QDKCKKVYENYPVSKCQLANQCNYDCKLDKHARSGECFYDEKRNLQCICDYCEY; ends and bridges not checked; cysteine pairing not given here; UniProt P56552 1-54, looked up) [reference compound]
- sweetness activity relative to the same mass of sucrose [1]: 2,309 (±6.8%) fold
